Measured values published in patent publication US10202415B1, “Method of synthesizing of 3-oxolupenal nanoparticles” (KING SAUD UNIVERSITY, priority 2017, dated 2019).

Legend:
Test in all cases: Antimicrobial activity, agar diffusion technique
Type in all cases: cell-based
[1] = test system: Candida albicans (RCMB 05036)
[2] = test system: Absidia corymbifera (RCMB 02564)
[3] = test system: Geotricum candidum (RCMB 05097)
[4] = test system: Staphylococcus aureus (RCMB 010027)
[5] = test system: Staphylococcus epidermidis (RCMB 010024)
[6] = test system: Streptococcus pyogenes (RCMB 010015)
[7] = test system: Salmonella enteritidis(RCMB 010084)
[8] = test system: Proteous vulgaris (RCMB 010085)
[9] = test system: Klebsiella pneumoniae (RCMB 0010093)

In the case of `C[C@@H]1[C@H](O)[C@@H](C)/C=C/C=C/C=C/C=C/C=C/C=C/C=C/[C@H](O[C@@H]2O[C@H](C)[C@@H](O)[C@H](N)[C@@H]2O)C[C@@H]2O[C@](O)(C[C@@H](O)C[C@@H](O)[C@H](O)CC[C@@H](O)C[C@@H](O)CC(=O)O[C@H]1C)C[C@H](O)[C@H]2C(=O)O` [Amphotericin B], the “Zone of Inhibition (±S.D.)” value [1] is reported as 25.7 ± 0.10, the “Zone of Inhibition (±S.D.)” value [2] is reported as 23.0 ± 0.10 and the “Zone of Inhibition (±S.D.)” value [3] is reported as 27.0 ± 0.20.
For `CC1(C)S[C@@H]2[C@H](NC(=O)[C@H](N)c3ccccc3)C(=O)N2[C@H]1C(=O)O` [Ampicillin], the “Zone of Inhibition (±S.D.)” value [4] was 27.3 ± 0.14, the “Zone of Inhibition (±S.D.)” value [5] was 25.0 ± 0.18 and the “Zone of Inhibition (±S.D.)” value [6] was 26.3 ± 0.34.
For Gentamycin, the “Zone of Inhibition (±S.D.)” value [7] was 25.2 ± 0.18, the “Zone of Inhibition (±S.D.)” value [8] was 23.4 ± 0.30 and the “Zone of Inhibition (±S.D.)” value [9] was 26.4 ± 0.15.
